# Assay results taken from patent US20170268001A1, “RNAS WITH TUMOR RADIO/CHEMO-SENSITIZING AND IMMUNOMODULATORY PROPERTIES AND METHODS OF THEIR PREPARATION AND APPLICATION” (THE UNIVERSITY OF CHICAGO, priority 2016, published 2017).
# T1: RIG-I (Homo sapiens, UniProt O95786)
# T1 construct: HEK293 cells overexpressing either the full length RIG-I; host or cells: HEK293; HCT116 also for the qRT-PCR validation
# T1 sequence (O95786 1-925): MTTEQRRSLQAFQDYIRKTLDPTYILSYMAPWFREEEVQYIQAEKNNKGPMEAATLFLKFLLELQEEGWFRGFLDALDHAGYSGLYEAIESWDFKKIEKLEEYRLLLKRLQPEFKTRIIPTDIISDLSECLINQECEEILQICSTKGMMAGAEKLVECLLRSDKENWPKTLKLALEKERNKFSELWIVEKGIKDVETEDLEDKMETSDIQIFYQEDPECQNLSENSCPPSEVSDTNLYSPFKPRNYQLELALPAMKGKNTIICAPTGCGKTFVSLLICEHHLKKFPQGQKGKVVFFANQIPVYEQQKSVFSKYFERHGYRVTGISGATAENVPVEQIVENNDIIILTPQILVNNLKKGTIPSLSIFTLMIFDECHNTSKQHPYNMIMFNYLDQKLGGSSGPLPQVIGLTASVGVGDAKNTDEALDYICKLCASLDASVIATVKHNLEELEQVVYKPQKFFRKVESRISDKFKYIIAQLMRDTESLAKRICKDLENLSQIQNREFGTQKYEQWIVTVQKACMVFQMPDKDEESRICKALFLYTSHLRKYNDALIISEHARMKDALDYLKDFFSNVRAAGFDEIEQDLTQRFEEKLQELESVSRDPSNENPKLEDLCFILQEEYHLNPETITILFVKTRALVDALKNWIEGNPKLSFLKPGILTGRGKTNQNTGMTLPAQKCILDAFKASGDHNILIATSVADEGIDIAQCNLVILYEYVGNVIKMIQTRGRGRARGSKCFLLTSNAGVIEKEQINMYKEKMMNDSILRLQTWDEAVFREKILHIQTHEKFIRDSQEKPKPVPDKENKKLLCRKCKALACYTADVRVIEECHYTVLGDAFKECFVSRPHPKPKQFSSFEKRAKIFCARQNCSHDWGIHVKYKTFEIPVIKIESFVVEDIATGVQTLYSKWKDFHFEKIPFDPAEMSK
# B1: M5: rbRNA, RIG-I agonist, 81 nucleotides, SEQ ID NO:26 (nucleic acid)
# chain: GACGAAGACCACAAAACCAGATAAAAAATTATTTTTTATCTGGTTTTGTGGTCTTCGTCTATAGTGAGTCGTATTAATTTC
# modifications: listed as DNA, chemistry not given here
# Molecular target: T1, RIG-I
# Assay: UV cross-linking with quantitative real-time PCR (CLIP-PCR) of RIG-I complexes
# Format: binding
# Description: Graphic representation indicating the distribution of non-coding and repetitive RNA molecules bound to RIG-I following exposure to IR as compared to total irradiated cellular RNA. Transcripts were mapped to reference genomes using RepeatMasker. See Methods for further details. […] Cells were UV crosslinked at 150 mJ/cm^2 48 hours post-IR treatment prior to cell lysis. […] FIG. 29H show IFN-b levels in culture supernatant from ICR RIG-I^+/+ and primary MEFs 24 hours post-stimulation with the same set of synthetic U1 oligonucleotides used in (FIG. 29G) The amount of U1 synthetic oligonucleotides used in all stimulation experiments was 1 μg. P values were determined using unpaired Student's t-test. Error bars are SEM. ***P<0.005.
# Technically, identification of RNAs was performed as follows: HEK293 cells were transiently transfected with 3×FLAG-tagged full-size RIG-I in pEF-BOS vector (Addgene; Cambridge, Mass.). Twenty-four hours post-transfection, cells were either mock-irradiated or exposed to IR (6 Gy). Forty-eight hours post-IR, cells were lysed with a modified lysis buffer (50 mM Tris-Cl pH 7.5, 0.15 M NaCl, 0.1% NP-40, 1.0% Triton X-100, 1 mM EDTA pH8.0, 1 mM EGTA pH8.0, 10% Glycerol, 2.5 mM MgCl2, 1 mM DTT, 0.1 mM ATP, and 1× Halt Protease Inhibitor) and incubated on ice for 1 hour. Cell lysates were separated from cell debris by centrifugation at 12,000 rpm at 4° C. Protein concentration was measured by BCA kit. Anti-FLAG monoclonal antibody was added to the cell lysate at a 1:500 dilution, and incubated overnight at 4° C. Protein G sepharose beads were added to the lysates and incubated for at least 2 hours at 4° C. Beads containing the antibody-RIG-I complexes were washed five times in wash buffer (50 mM Tris-Cl pH 7.5, 0.15 M NaCl, 1 mM MgCl2, 0.05% NP-40, 1 mM DTT) and proteins were eluted from the beads using a soft elution buffer (0.5% SDS, 0.1% Tween-20, 50 mM Tris pH 8.0) for 10 minutes at room temperature with vortexing every 2-3 minutes. Proteinase K was added to the eluates and incubated at 50° C. for 45 minutes. Trizol reagent was then added to the solution, and RNA bound to RIG-I was purified following manufacturer's protocol. RNA quality was analyzed using an Agilent Bioanalyzer 2100 with Pico Series II cartridges. RNA yield was measured using the Qubit RNA Broad Range kit. For qRT-PCR validation experiments of RIG-I pulled down RNA, UV cross-linking (2 doses at 150 mJ/cm^2) was performed on HEK293 and HCT116 overexpressing RIG-I prior to cell lysis. The same protocol for pulldown and RNA purification experiments was performed as described above.
Molecule,enrichment in RIG-I: RNA complexes in irradiated samples (HCT116 cells overexpressing RIG-I),"enrichment in purified RIG-I complexes, irradiated vs non-irradiated (HEK293 expressing WT RIG-I, IR 6 Gy)",binding to RIG-I (RIG-I: RNA complexes isolated from HCT116 cells overexpressing RIG-I)
"U2: snRNA, SEQ ID NO:21",significant enrichment,6 fold,–
B1,–,–,binds
